From US20110294799A1, “Organic Compounds” (NOVARTIS AG, priority 2007, published 2011) come the findings set out here.

Assay [1] has as its target T1, GABA-A alpha1 receptor (alpha 1 subunit together with a beta and a gamma subunit) (Homo sapiens, UniProt P14867+P18507).
T1 construct: expressed in transfected cells
T1 sequence (P14867 28-456): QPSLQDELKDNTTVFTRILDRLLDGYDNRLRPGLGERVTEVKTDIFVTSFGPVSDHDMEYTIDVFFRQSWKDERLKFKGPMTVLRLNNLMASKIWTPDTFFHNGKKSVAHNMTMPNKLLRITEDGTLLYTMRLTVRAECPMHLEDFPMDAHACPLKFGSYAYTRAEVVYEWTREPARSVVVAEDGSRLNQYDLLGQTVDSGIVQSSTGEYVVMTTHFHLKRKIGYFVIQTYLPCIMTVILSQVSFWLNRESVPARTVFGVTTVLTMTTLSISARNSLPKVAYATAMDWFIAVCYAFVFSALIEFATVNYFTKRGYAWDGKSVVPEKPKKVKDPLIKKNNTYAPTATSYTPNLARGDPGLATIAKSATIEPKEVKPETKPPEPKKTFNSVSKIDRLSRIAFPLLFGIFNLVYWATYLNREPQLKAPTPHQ
T1 sequence (P47870 25-512 partner limits assumed): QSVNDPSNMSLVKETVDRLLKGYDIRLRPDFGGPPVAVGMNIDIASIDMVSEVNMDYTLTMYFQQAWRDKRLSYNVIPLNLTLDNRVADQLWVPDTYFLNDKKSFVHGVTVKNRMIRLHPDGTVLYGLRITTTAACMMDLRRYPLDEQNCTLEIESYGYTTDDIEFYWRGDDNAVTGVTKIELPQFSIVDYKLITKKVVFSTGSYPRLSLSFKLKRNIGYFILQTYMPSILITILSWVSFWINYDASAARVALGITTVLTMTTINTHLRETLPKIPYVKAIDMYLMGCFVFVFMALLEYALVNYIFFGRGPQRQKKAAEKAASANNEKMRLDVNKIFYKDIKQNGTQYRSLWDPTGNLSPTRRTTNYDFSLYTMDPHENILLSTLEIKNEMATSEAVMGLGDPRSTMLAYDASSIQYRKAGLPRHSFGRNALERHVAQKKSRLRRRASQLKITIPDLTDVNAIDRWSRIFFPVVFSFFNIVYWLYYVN
T1 sequence (P18507 40-467 limits assumed): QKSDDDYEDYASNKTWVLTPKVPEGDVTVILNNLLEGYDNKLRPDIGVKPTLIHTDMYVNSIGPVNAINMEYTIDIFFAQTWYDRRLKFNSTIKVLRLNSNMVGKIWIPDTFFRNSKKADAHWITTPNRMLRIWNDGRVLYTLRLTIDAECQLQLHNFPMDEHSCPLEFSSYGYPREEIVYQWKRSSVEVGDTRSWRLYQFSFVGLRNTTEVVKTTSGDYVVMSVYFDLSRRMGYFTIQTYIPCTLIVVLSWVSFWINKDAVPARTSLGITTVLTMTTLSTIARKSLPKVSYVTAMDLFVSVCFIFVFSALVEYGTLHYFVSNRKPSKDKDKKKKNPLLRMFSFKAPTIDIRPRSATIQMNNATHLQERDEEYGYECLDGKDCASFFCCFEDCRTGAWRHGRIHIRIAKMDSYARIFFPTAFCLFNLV
The assay is described as follows: GABA-A receptor modulation, voltage-sensitive dye fluorescence in transfected eukaryotic cell line (alpha1). The class given is cell-based. As to conditions: compounds at 3 μM, sub-maximal concentration of GABA (EC20); for activation at 3 µM: read-out: alpha1 % mod (percentage of increase of the fluorescent signal compared to signal without the agent). An excerpt:
(§1) GABA-A receptor modulators show in functional assays a positive modulation of GABA-induced signals. This modulation can be determined in vitro, e.g., at recombinant GABA-A receptors expressed in a mammalian cell line, e.g. by measurement of GABA-A receptor induced changes of the trans-membrane voltage, when using a voltage-sensitive dye and a fluorescence detection system (Adkins, C. E., Pillai, G. V., Kerby, J., Bonnert, T. P., Haldon, C., Mckernan, R. M., Gonzalez, J. E., Oades, K., Whiting, P. J. & Simpson, P. B. [2001]. alpha4beta3delta GABA-A receptors characterized by fluorescence resonance energy transfer-derived measurements of membrane potential. J. Biol. Chem., 276, 38934-38939). In this assay, a modulator compound is pre-applied at different concentrations ranging from 0.1 nM to 10 μM to cells expressing GABA-A receptors and loaded with the voltage-sensitive dye, before, or at the same time as, a sub-maximal concentration of GABA (in the range of from 0.1 to 10 μM) is applied to the cells. The fluorescent signal is correlated with the degree of GABA-A receptor channel opening. This allows the quantification of effects induced by the modulator in a functional manner. By expression of different GABA-A receptor subunit combinations, the differential efficacy of a modulator at different GABA-A receptor variants can be tested. Other functional assays include the electrophysiological recording of Xenopus oocytes or mammalian cells expressing respective receptor variants. In addition, ion flux detectors can be used to functionally study GABA-A receptors in heterologous expression systems. The affinity of a compound to the GABA-A receptor can be measured in radioligand binding experiments using reference ligands containing a radioactive element, e.g., tritiated flumazenil, and intact cells or membrane preparations of cells expressing GABA-A receptors.
(§2) Activity and selectivity of a GABA-A receptor modulator according to the invention can, e.g., be determined in vitro as follows: A transfected eukaryotic cell line expressing the alpha1, alpha2 or alpha3 subunit of the GABA-A receptor together with a beta and a gamma subunit of the GABA-A receptor is incubated with a voltage-sensitive dye, and the effects of an agonist (typically GABA) or modulator addition are recorded in a fluorimetric plate reader. The opening of the GABA-A receptor channel and the subsequent flux of anions through it changes the trans-membrane voltage of the transfected cells, leading to a change in the fluorescent signal of the voltage-sensitive dye. In the presence of the agent of the invention, a sub-maximal concentration of GABA (e.g. an EC20 or an EC50) added to transfected cells expressing the alpha1, alpha2 or alpha3 subunit of the GABA-A receptor will elicit an at least 50%, preferably an at least 80%, ideally an at least 100%, increase, of the fluorescent signal, compared to the fluorescent signal obtained without the agent of the invention. In this assay, agents of the invention modulate the GABA-induced response at concentration from about 0.1 to about 10′000 nM.

For assay [2], the target named is T2, GABA-A alpha2 receptor (alpha 2 subunit together with a beta and a gamma subunit) (Homo sapiens, UniProt P18507+P47869).
T2 construct: expressed in transfected cells
T2 sequence (P47869 29-451): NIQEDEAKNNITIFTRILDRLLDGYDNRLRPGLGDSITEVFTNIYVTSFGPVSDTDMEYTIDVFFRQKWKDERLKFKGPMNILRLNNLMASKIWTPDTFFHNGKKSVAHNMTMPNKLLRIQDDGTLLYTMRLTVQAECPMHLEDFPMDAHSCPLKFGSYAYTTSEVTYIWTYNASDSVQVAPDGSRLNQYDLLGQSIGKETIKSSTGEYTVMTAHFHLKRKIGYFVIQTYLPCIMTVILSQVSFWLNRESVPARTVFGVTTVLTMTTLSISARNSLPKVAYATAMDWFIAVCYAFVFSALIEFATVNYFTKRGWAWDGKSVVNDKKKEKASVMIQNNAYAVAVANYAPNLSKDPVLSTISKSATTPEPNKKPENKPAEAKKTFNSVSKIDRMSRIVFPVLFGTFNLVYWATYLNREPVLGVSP
T2 sequence (P47870 25-512 partner limits assumed): T1 sequence (P47870 25-512 partner limits assumed)
T2 sequence (P18507 40-467 limits assumed): T1 sequence (P18507 40-467 limits assumed)
The assay is described as follows: GABA-A receptor modulation, voltage-sensitive dye fluorescence in transfected eukaryotic cell line (alpha2). The class given is cell-based. The following applies: compounds at 3 μM, sub-maximal concentration of GABA (EC20); for activation at 3 µM: read-out: alpha2 % mod (percentage of increase of the fluorescent signal compared to signal without the agent).
Excerpt: as §1, §2

As to `Clc1ccc(-n2nc3c(cnc4ccc(-n5ccnc5)cc43)c2OCC2CC2)cc1` [Example 96, 2-(4-Chloro-phenyl)-3-cyclopropylmethoxy-8-imidazol-1-yl-2H-pyrazolo[4,3-c]quinoline], the activation at 3 µM came out at 119% in assay [1] and 162% in assay [2].

On to `Clc1ccc(-n2nc3c(cnc4ccccc43)c2OCC2CCO2)cc1` (stereo not drawn) [Example 98, 2-(4-Chloro-phenyl)-3-(oxetan-2-ylmethoxy)-2H-pyrazolo[4,3-c]quinoline], for which the activation at 3 µM is 53% in assay [1] and 97% in assay [2].

`CN1CCN(CCOc2c3cnc4ccccc4c3nn2-c2ccc(Cl)cc2)CC1` [Example 99]: the “alpha1 % mod (percentage of increase of the fluorescent signal compared to signal without the agent)” value in assay [1] is 58 % mod. Besides, in assay [2], the “alpha2 % mod (percentage of increase of the fluorescent signal compared to signal without the agent)” value came out at 121 % mod.

With `Clc1ccc(-n2nc3c(cnc4ccc(-n5ccnc5)cc43)c2OCC2CCCC2)cc1` [Example 113, 2-(4-Chloro-phenyl)-3-cyclopentylmethoxy-8-imidazol-1-yl-2H-pyrazolo[4,3-c]quinoline], the activation at 3 µM in assay [1] was found to be 63%; in assay [2], 88%.

As for `Clc1ccc(-n2nc3c(cnc4ccc(-n5ccnc5)cc43)c2OCCc2ccccc2Cl)cc1` [Example 114, 2-(4-Chloro-phenyl)-3-[2-(2-chloro-phenyl)-ethoxy]-8-imidazol-1-yl-2H-pyrazolo[4,3-c]quinoline], the figures for the activation at 3 µM in assay [1] and in assay [2] were 108% and 129%, respectively.

As to `Clc1ccc(-n2nc3c(cnc4ccc(Br)cc43)c2OCc2ccccc2Cl)cc1` [Example 115, 8-Bromo-3-(2-chloro-benzyloxy)-2-(4-chloro-phenyl)-2H-pyrazolo[4,3-c]quinoline], the activation at 3 µM in assay [1] amounted to 26%; in assay [2], 66%.
